Measured values reported in patent US5449752A, “Polypeptides with affinity to lipopolysaccharides and their uses” (Seikagaku Kogyo K.K., priority 1991, dated 1995).
Converted amounts (≈) assume the structure as drawn. Positions of bridges follow the written chain, without caps; N, C: chain ends. Residues, ends and D or L forms follow the SMILES beside them. No end group written: not given here.

How the values were obtained:
HIV = assay: Antiviral activity against HIV in HIV-infected MT-4 cells (MTT method); type: cell-based, human immunodeficiency virus; details: for EC50 (concentration at which cell death due to HIV infection is 50% inhibited): HIV-infected MT-4 cells, MOI 0.001, 37° C., 5 days, MTT method
Experimental: The antiviral activity-against HIV of the polypeptide (1) synthesized in Example 1 as well as polypeptides (2), (3), (4), (7), (12), (13), (14), (20), (21) and (26) was tested and evaluated according to the following method.
(§1) HIV-infected MT-4 cells (2.5×10^4 cells/well, multiplicity of infection (MOI): 0.001) immediately after infection were added together with the test substance with various changes of the concentration to a 96-well microtitre plate. After incubation at 37° C. for 5 days in a CO2 incubator, the number of survivor cells was measured by the MTT method [Pauwels et al.; J. Virol. Methods, 20, 309-321 (1988)]. The antiviral activity is expressed as a concentration at which cell death due to HIV infection is 50% inhibited (EC50 : 50% effective concentration). On the other hand, in order to know the cytotoxicity of the test substance on the MT-4 cells, virus-noninfected cells are incubated, likewise as above, together with the test compound with various changes of the concentration. The cytotoxicity is expressed as 50% cytotoxic concentration […] due to the test substance. Further, the rough ratio of CC50 to EC50 (CC50 /EC50) is expressed as an effective ratio (SI=selectivity index).

MT-4 cells = assay: Cytotoxicity on virus-noninfected MT-4 cells (MTT method); type: cell-based; details: 37° C., 5 days
Experimental: as §1

| Compound | EC50 (concentration at which cell death due to HIV infection is 50% inhibited) (HIV) | CC50 (50% cytotoxic concentration) (MT-4 cells) | selectivity in killing HIV infected cells (in words) (HIV; MT-4 cells, Table III) | selectivity index higher than for any of the known high endotoxin affinity compounds (HIV; compared with Tachyplesins and Polyphemusins of Table III) | SI (CC50 /EC50) (HIV; rough ratio of CC50 to EC50, MT-4 cells) |
| --- | --- | --- | --- | --- | --- |
| N=C(N)NCCC[C@H](NC(=O)[C@@H]1CSSC[C@H](NC(=O)[C@H](Cc2c[nH]c3ccccc23)NC(=O)[C@H](CCCNC(=N)N)NC(=O)[C@@H](N)CCCNC(=N)N)C(=O)N[C@@H](Cc2ccc(O)cc2)C(=O)N[C@@H](CCCNC(=N)N)C(=O)N[C@@H](CCCCN)C(=O)N[C@H]2CSSC[C@H](NC(=O)[C@H](Cc3ccccc3)NC(=O)CNC(=O)[C@H](CCCCN)NC(=O)[C@H](Cc3ccccc3)NC2=O)C(=O)N[C@@H](Cc2ccc(O)cc2)C(=O)N[C@@H](CCCNC(=N)N)C(=O)N[C@@H](CCCCN)C(=O)N1)C(N)=O [polypeptide (20), ArgArgTrpCysTyrArgLysCysPheLysGlyPheCysTyrArgLysCysArgNH2] (H-RRWCYRKCFKGFCYRKCR-NH2; disulfide 4-17, 8-13; N-terminus assumed) | 0.01 µg/mL (≈ 0.00407 µM) | 54 µg/mL (≈ 22 µM) |  |  |  |
| N=C(N)NCCC[C@H](NC(=O)[C@@H]1CSSC[C@H](NC(=O)[C@H](Cc2c[nH]c3ccccc23)NC(=O)[C@@H](N)CCCNC(=N)N)C(=O)N[C@@H](Cc2ccc(O)cc2)C(=O)N[C@@H](CCCNC(=N)N)C(=O)N[C@@H](CCCCN)C(=O)N[C@H]2CSSC[C@H](NC(=O)[C@H](Cc3ccccc3)NC(=O)CNC(=O)[C@H](CCCCN)NC(=O)[C@H](Cc3ccccc3)NC2=O)C(=O)N[C@@H](Cc2ccc(O)cc2)C(=O)N[C@@H](CCCNC(=N)N)C(=O)N[C@@H](CCCCN)C(=O)N1)C(N)=O [polypeptide (21), ArgTrpCysTyrArgLysCysPheLysGlyPheCysTyrArgLysCysArgNH2] (H-RWCYRKCFKGFCYRKCR-NH2; disulfide 3-16, 7-12; N-terminus assumed) | 0.08 µg/mL (≈ 0.0348 µM) | 53 µg/mL (≈ 23.1 µM) |  |  |  |
| N=C(N)NCCC[C@H](NC(=O)[C@@H]1CSSC[C@H](NC(=O)[C@H](Cc2c[nH]c3ccccc23)NC(=O)[C@@H](N)CCCNC(=N)N)C(=O)N[C@@H](Cc2ccc(O)cc2)C(=O)N[C@@H](CCCNC(=N)N)C(=O)N[C@@H](CCCCN)C(=O)N[C@H]2CSSC[C@H](NC(=O)[C@H](Cc3ccc(O)cc3)NC(=O)CNC(=O)[C@H](CCCCN)NC(=O)[C@H](Cc3ccc(O)cc3)NC2=O)C(=O)N[C@@H](Cc2ccc(O)cc2)C(=O)N[C@@H](CCCNC(=N)N)C(=O)N[C@@H](CCCCN)C(=O)N1)C(N)=O [polypeptide (26), ArgTrpCysTyrArgLysCysTyrLysGlyTyrCysTyrArgLysCysArgNH2] (H-RWCYRKCYKGYCYRKCR-NH2; disulfide 3-16, 7-12; N-terminus assumed) | 0.18 µg/mL (≈ 0.0772 µM) | 165 µg/mL (≈ 70.8 µM) | particularly selective | at least 7 fold |  |
| ArgArgTyrCysTyrArgLysCysTyrLysGlyTyrCysTrpArgLysCysArgNH2 (RRYCYRKCYKGYCWRKCR-NH2; cysteine pairing not given here) [polypeptide (7)] | 0.36 µg/mL | 100 µg/mL |  |  | 278 |
